In ChEMBL document CHEMBL6121037, “Screening, Discovery, and Optimization of the Natural Antitubercular Chlorflavonin from a Marine-Derived Fungal Library” (J Nat Prod, 2025):
Where a name gives a salt, the structure may show the parent alone. Calls of active or inactive are those of the source. The calls are words filed in the database; no cut-off is given here.

Key:
[1] = test system: Mycobacterium tuberculosis; experiment: Antitubercular activity against Mycobacterium tuberculosis H37Ra assessed as reduction in microbial growth; type: functional
[2] = test system: Mycobacterium marinum; experiment: Antibacterial activity against Mycobacterium marinum assessed as reduction in microbial growth at 100 ug/ml; type: functional, organism-based; details: dose 100.0 µg/ml
[3] = test system: Staphylococcus aureus; experiment: Antibacterial activity against Staphylococcus aureus assessed as reduction in microbial growth at 25 ug/ml incubated for 24 hrs; type: functional, organism-based; details: dose 25.0 µg/ml
[4] = test system: A549; experiment: Cytotoxicity against human A549 cells at 20 uM by MTT assay; type: functional, cell-based
[5] = test system: A549; experiment: Cytotoxicity against human A549 cells by MTT assay; type: functional, cell-based

## COc1ccc(/C=C/C(=O)Oc2c(Cl)cccc2-c2oc3c(OC)c(OC)cc(O)c3c(=O)c2OC)cc1
[1]
  MIC90: 1.9 µM
[2]
  Activity: inactive
[3]
  Activity: inactive
[4]
  Activity: inactive

## COc1cc(O)c2c(=O)c(OC)c(-c3cccc(Cl)c3OC(=O)/C=C/c3ccccc3Cl)oc2c1OC
[1]
  MIC90: 0.7 µM
[2]
  Activity: inactive
[3]
  Activity: inactive
[4]
  Activity: inactive

## COc1cc(OC(=O)c2cccc(F)c2)c2c(=O)c(OC)c(-c3cccc(Cl)c3OC(=O)c3cccc(F)c3)oc2c1OC
[1]
  MIC90: 1.6 µM
[2]
  Activity: inactive
[3]
  Activity: inactive
[4]
  Activity: inactive

## COc1cc(OCc2ccc(C(C)(C)C)cc2)c2c(=O)c(OC)c(-c3cccc(Cl)c3OCc3ccc(C(C)(C)C)cc3)oc2c1OC
[2]
  Activity: inactive
[3]
  Activity: inactive
[4]
  Activity: inactive

## COc1cc(O)c2c(=O)c(OC)c(-c3ccccc3O)oc2c1OC
[2]
  Activity: inactive
[3]
  Activity: inactive
[4]
  Activity: inactive

## COc1cc(OC(=O)c2cccs2)c2c(=O)c(OC)c(-c3cccc(Cl)c3OC(=O)c3cccs3)oc2c1OC
[2]
  Activity: inactive
[3]
  Activity: inactive
[4]
  Activity: inactive

## COc1cc(O)c2c(=O)c(OC)c(-c3cccc(Cl)c3OC(=O)/C=C/c3ccc(C(F)(F)F)cc3)oc2c1OC
[1]
  MIC90: 1.7 µM
[2]
  Activity: inactive
[3]
  Activity: inactive
[4]
  Activity: inactive

## COc1cccc2c1C(=O)c1c(O)c3c(c(O)c1C2=O)C[C@@](O)(C(=O)CO)C[C@@H]3O[C@H]1C[C@H](N)[C@H](O)[C@H](C)O1 [DOXORUBICIN HYDROCHLORIDE]
[5]
  IC50: 250 nM

## COc1cc(O)c2c(=O)c(OC)c(-c3cccc(Cl)c3OC(=O)/C=C/c3ccc(F)c(F)c3)oc2c1OC
[2]
  Activity: inactive
[3]
  Activity: inactive
[4]
  Activity: inactive

## COc1cc(OC(=O)c2cccc(N(C)C)c2)c2c(=O)c(OC)c(-c3cccc(Cl)c3OC(=O)c3cccc(N(C)C)c3)oc2c1OC
[2]
  Activity: inactive
[3]
  Activity: inactive
[4]
  Activity: inactive

## COc1cc(O)c2c(=O)c(OC)c(-c3cccc(Cl)c3OC(=O)/C=C/c3cccc(Cl)c3)oc2c1OC
[1]
  MIC90: 0.9 µM
[2]
  Activity: inactive
[3]
  Activity: inactive
[4]
  Activity: inactive

## COc1cc(/C=C/C(=O)Oc2c(Cl)cccc2-c2oc3c(OC)c(OC)cc(O)c3c(=O)c2OC)cc(OC)c1OC
[1]
  MIC90: 1.7 µM
[2]
  Activity: inactive
[3]
  Activity: inactive
[4]
  Activity: inactive

## COc1cc(C(=O)Oc2c(Cl)cccc2-c2oc3c(OC)c(OC)cc(OC(=O)c4cc(OC)c(OC)c(OC)c4)c3c(=O)c2OC)cc(OC)c1OC
[2]
  Activity: inactive
[3]
  Activity: inactive
[4]
  Activity: inactive

## COc1cc(O)c2c(=O)c(OC)c(-c3cccc(Cl)c3OC(=O)/C=C/c3ccccc3)oc2c1OC
[1]
  MIC90: 2 µM
[2]
  Activity: inactive
[3]
  Activity: inactive
[4]
  Activity: inactive

## COc1cc(O)c2c(=O)c(OC)c(-c3cc(Br)cc(Cl)c3O)oc2c1OC
[2]
  Activity: inactive
[3]
  Activity: inactive
[4]
  Activity: inactive

## COc1cc(O)c2c(=O)c(OC)c(-c3cccc(Cl)c3OCc3cccc(C)c3)oc2c1OC
[2]
  Activity: inactive
[3]
  Activity: inactive
[4]
  Activity: inactive

## COc1cc(O)c2c(=O)c(OC)c(-c3cccc(Cl)c3OC(=O)/C=C/c3cccnc3)oc2c1OC
[1]
  MIC90: 2 µM
[2]
  Activity: inactive
[3]
  Activity: inactive
[4]
  Activity: inactive

## COc1cc(O)c2c(=O)c(OC)c(-c3cccc(Cl)c3OCc3ccc(F)cc3)oc2c1OC
[2]
  Activity: inactive
[3]
  Activity: inactive
[4]
  Activity: inactive

## COc1cc(O)c2c(=O)c(OC)c(-c3cccc(Cl)c3OC(=O)/C=C/c3ccsc3)oc2c1OC
[1]
  MIC90: 1.9 µM
[2]
  Activity: inactive
[3]
  Activity: inactive
[4]
  Activity: inactive

## COc1ccc(C(=O)Oc2c(Cl)cccc2-c2oc3c(OC)c(OC)cc(OC(=O)c4ccc(OC)cc4)c3c(=O)c2OC)cc1
[2]
  Activity: inactive
[3]
  Activity: inactive
[4]
  Activity: inactive

## COc1cc(OC(=O)c2ccccc2)c2c(=O)c(OC)c(-c3cccc(Cl)c3OC(=O)c3ccccc3)oc2c1OC
[1]
  MIC90: 1.7 µM
[2]
  Activity: inactive
[3]
  Activity: inactive
[4]
  Activity: inactive

## COc1cc(O)c2c(=O)c(OC)c(-c3cccc(Cl)c3OC(=O)c3cccnc3)oc2c1OC
[1]
  MIC90: 2.1 µM
[2]
  Activity: inactive
[3]
  Activity: inactive
[4]
  Activity: inactive

## COc1cc(O)c2c(=O)c(OC)c(-c3cccc(Cl)c3OC(=O)c3cccc(N)c3)oc2c1OC
[1]
  MIC90: 2 µM
[2]
  Activity: inactive
[3]
  Activity: inactive
[4]
  Activity: inactive

## NNC(=O)c1ccncc1 [ISONIAZID]
[1]
  MIC90: 0.3 µM
[2]
  Activity: inactive
[3]
  Activity: inactive

## COc1cc(C(=O)Oc2c(Cl)cccc2-c2oc3c(OC)c(OC)cc(O)c3c(=O)c2OC)cc(OC)c1OC
[1]
  MIC90: 1.8 µM
[2]
  Activity: inactive
[3]
  Activity: inactive
[4]
  Activity: inactive

## COc1cc(O)c2c(=O)c(OC)c(-c3cccc(Cl)c3OC(=O)c3cccc(C)c3)oc2c1OC
[2]
  Activity: inactive
[3]
  Activity: inactive
[4]
  Activity: inactive

## COc1cc(O)c2c(=O)c(OC)c(-c3cccc(Cl)c3OC(=O)c3ccccc3)oc2c1OC
[1]
  MIC90: 1 µM
[2]
  Activity: inactive
[3]
  Activity: inactive
[4]
  Activity: inactive

## COc1cc(O)c2c(=O)c(OC)c(-c3cccc(Cl)c3OC(=O)/C=C/c3ccc(N(C)C)cc3)oc2c1OC
[2]
  Activity: inactive
[3]
  Activity: inactive
[4]
  Activity: inactive

## COc1cc(OC(=O)c2cccc(Cl)c2)c2c(=O)c(OC)c(-c3cccc(Cl)c3OC(=O)c3cccc(Cl)c3)oc2c1OC
[2]
  Activity: inactive
[3]
  Activity: inactive
[4]
  Activity: inactive

## COc1cc(OCc2cccc(F)c2)c2c(=O)c(OC)c(-c3cccc(Cl)c3OCc3cccc(F)c3)oc2c1OC
[2]
  Activity: inactive
[3]
  Activity: inactive
[4]
  Activity: inactive

## COc1cc(O)c2c(=O)c(OC)c(-c3cccc(Br)c3O)oc2c1OC
[1]
  MIC90: 1.2 µM

## COc1cc(OC(=O)/C=C/c2ccc(C(F)(F)F)cc2)c2c(=O)c(OC)c(-c3cccc(Cl)c3OC(=O)/C=C/c3ccc(C(F)(F)F)cc3)oc2c1OC
[2]
  Activity: inactive
[3]
  Activity: inactive
[4]
  Activity: inactive

## COc1cc(O)c2c(=O)c(OC)c(-c3cccc(Cl)c3OCc3ccc(C(C)(C)C)cc3)oc2c1OC
[2]
  Activity: inactive
[3]
  Activity: inactive
[4]
  Activity: inactive

## COc1cc(O)c2c(=O)c(OC)c(-c3cccc(Cl)c3O)oc2c1OC
[1]
  MIC90: 2.6 µM
[2]
  Activity: inactive
[3]
  Activity: inactive
[4]
  Activity: inactive

## COc1c(Br)c(O)c2c(=O)c(OC)c(-c3cc(Br)cc(Cl)c3O)oc2c1OC
[2]
  Activity: inactive
[3]
  Activity: inactive
[4]
  Activity: inactive

## COc1cc(OCc2ccc(C(F)(F)F)cc2)c2c(=O)c(OC)c(-c3cccc(Cl)c3OCc3ccc(C(F)(F)F)cc3)oc2c1OC
[2]
  Activity: inactive
[3]
  Activity: inactive
[4]
  Activity: inactive

## COc1cc(O)c2c(=O)c(OC)c(-c3cccc(Cl)c3OC(=O)c3cccc(Br)c3)oc2c1OC
[1]
  MIC90: 1.8 µM
[2]
  Activity: inactive
[3]
  Activity: inactive
[4]
  Activity: inactive

## COc1cc(O)c2c(=O)c(OC)c(-c3cccc(Cl)c3OC(=O)/C=C/c3ccc(C)cc3)oc2c1OC
[1]
  MIC90: 1.9 µM
[2]
  Activity: inactive
[3]
  Activity: inactive
[4]
  Activity: inactive

## COc1cc(O)c2c(=O)c(OC)c(-c3cccc(Cl)c3OCCc3cccc(F)c3)oc2c1OC
[2]
  Activity: inactive
[3]
  Activity: inactive
[4]
  Activity: inactive

## COc1cc(OCc2cccc(C)c2)c2c(=O)c(OC)c(-c3cccc(Cl)c3OCc3cccc(C)c3)oc2c1OC
[2]
  Activity: inactive
[3]
  Activity: inactive
[4]
  Activity: inactive

## COc1ccc(C(=O)Oc2c(Cl)cccc2-c2oc3c(OC)c(OC)cc(O)c3c(=O)c2OC)cc1
[1]
  MIC90: 2 µM
[2]
  Activity: inactive
[3]
  Activity: inactive
[4]
  Activity: inactive

## COc1cc(O)c2c(=O)c(OC)c(-c3cccc(Cl)c3OC(=O)c3cccc(Cl)c3)oc2c1OC
[1]
  MIC90: 1.9 µM
[2]
  Activity: inactive
[3]
  Activity: inactive
[4]
  Activity: inactive

## COc1cc(O)c2c(=O)c(OC)c(-c3cccc(Cl)c3OC(=O)N(C)C)oc2c1OC
[2]
  Activity: inactive
[3]
  Activity: inactive
[4]
  Activity: inactive
